Assay results as given in ChEMBL document CHEMBL3228009, “Hypobetalipoproteinemic agents. 2. Compounds related to 4-(1-adamantyloxy)aniline” (J Med Chem, 1979).

How the values were obtained:
Rattus norvegicus [1] = assay: Hypobetalipoproteinemic activity in diet-induced hypercholesteremic rat model assessed as decrease in total serum cholesterol at 50 mg/kg, po relative to control; format: functional
Rattus norvegicus [2] = assay: Hypobetalipoproteinemic activity in diet-induced hypercholesteremic rat model assessed as decrease in heparin precipitating lipoproteins at 50 mg/kg, po relative to control; format: functional
Rattus norvegicus [3] = species: Rattus norvegicus; assay: Selectivity ratio of T/C for heparin precipitating lipoproteins to T/C for total serum cholesterol in diet-induced hypercholesteremic rat model; format: functional
Rattus norvegicus [4] = assay: Toxicity in diet-induced hypercholesteremic rat model assessed as increase in body weight at 50 mg/kg, po relative to control; format: organism-based; parameters: dose 50 mg/kg, route oral; conditions: in vivo
Rattus norvegicus [5] = assay: Toxicity in diet-induced hypercholesteremic rat model assessed as increase in food intake at 50 mg/kg, po relative to control; format: organism-based; parameters: dose 50 mg/kg, route oral; conditions: in vivo

Cc1cc(N)ccc1OC12CC3CC(CC(C3)C1)C2.Cl
T/C (Rattus norvegicus [1]): 0.52 | T/C (Rattus norvegicus [2]): 0.31 | Selectivity ratio (Rattus norvegicus [3]): 0.6 | Activity (Rattus norvegicus [4]): < 63% | Activity (Rattus norvegicus [5]): > 73%

CN(c1ccc(N2CCCC2)cc1)C12CC3CC(CC(C3)C1)C2
T/C (Rattus norvegicus [1]): 0.93 | T/C (Rattus norvegicus [2]): 1.02 | Selectivity ratio (Rattus norvegicus [3]): 1.1 | Activity (Rattus norvegicus [4]): < 63% | Activity (Rattus norvegicus [5]): > 73%

Nc1ccc(NC23CC4CC(CC(C4)C2)C3)cc1
T/C (Rattus norvegicus [1]): 0.94 | T/C (Rattus norvegicus [2]): 0.85 | Selectivity ratio (Rattus norvegicus [3]): 0.9 | Activity (Rattus norvegicus [4]): < 63% | Activity (Rattus norvegicus [5]): > 73%

CN(C=O)c1ccc(OC23CC4CC(CC(C4)C2)C3)cc1
T/C (Rattus norvegicus [1]): 0.51 | T/C (Rattus norvegicus [2]): 0.36 | Selectivity ratio (Rattus norvegicus [3]): 0.72 | Activity (Rattus norvegicus [4]): > 63% | Activity (Rattus norvegicus [5]): > 73%

CC1(Oc2ccc(N3CCCC3)cc2)C2CC3CC(C2)CC1C3 (stereo not given)
T/C (Rattus norvegicus [1]): 1.04 | T/C (Rattus norvegicus [2]): 1.03 | Selectivity ratio (Rattus norvegicus [3]): 0.99 | Activity (Rattus norvegicus [4]): > 63% | Activity (Rattus norvegicus [5]): > 73%

Fc1cc(OC23CC4CC(CC(C4)C2)C3)ccc1N1CCCC1
T/C (Rattus norvegicus [1]): 0.58 | T/C (Rattus norvegicus [2]): 0.3 | Selectivity ratio (Rattus norvegicus [3]): 0.51 | Activity (Rattus norvegicus [4]): > 63% | Activity (Rattus norvegicus [5]): > 73%

Cl.Nc1ccccc1CC12CC3CC(CC(C3)C1)C2
T/C (Rattus norvegicus [1]): 0.86 | T/C (Rattus norvegicus [2]): 0.89 | Selectivity ratio (Rattus norvegicus [3]): 1.03 | Activity (Rattus norvegicus [4]): > 63% | Activity (Rattus norvegicus [5]): > 73%

CS(=O)(=O)Nc1ccc(OC23CC4CC(CC(C4)C2)C3)cc1
T/C (Rattus norvegicus [1]): 1.51 | T/C (Rattus norvegicus [2]): 1.3 | Selectivity ratio (Rattus norvegicus [3]): 0.85 | Activity (Rattus norvegicus [4]): > 63% | Activity (Rattus norvegicus [5]): > 73%

O=CNc1ccc(OC23CC4CC(CC(C4)C2)C3)cc1
T/C (Rattus norvegicus [1]): 0.71 | T/C (Rattus norvegicus [2]): 0.78 | Selectivity ratio (Rattus norvegicus [3]): 1.09 | Activity (Rattus norvegicus [4]): > 63% | Activity (Rattus norvegicus [5]): > 73%

CC(=O)Nc1ccc(OC23CC4CC(CC(C4)C2)C3)c(F)c1
T/C (Rattus norvegicus [1]): 1.15 | T/C (Rattus norvegicus [2]): 1.07 | Selectivity ratio (Rattus norvegicus [3]): 0.93 | Activity (Rattus norvegicus [4]): > 63% | Activity (Rattus norvegicus [5]): > 73%

CC1(Oc2ccc(N)cc2)C2CC3CC(C2)CC1C3 (stereo not given)
T/C (Rattus norvegicus [1]): 0.58 | T/C (Rattus norvegicus [2]): 0.45 | Selectivity ratio (Rattus norvegicus [3]): 0.77 | Activity (Rattus norvegicus [4]): < 63% | Activity (Rattus norvegicus [5]): > 73%

c1cc(C23CC4CC(CC(C4)C2)C3)ccc1N1CCCC1
T/C (Rattus norvegicus [1]): 1.17 | T/C (Rattus norvegicus [2]): 0.9 | Selectivity ratio (Rattus norvegicus [3]): 0.77 | Activity (Rattus norvegicus [4]): > 63% | Activity (Rattus norvegicus [5]): > 73%

Nc1ccc(S(=O)(=O)C23CC4CC(CC(C4)C2)C3)cc1
T/C (Rattus norvegicus [1]): 1.12 | T/C (Rattus norvegicus [2]): 1.07 | Selectivity ratio (Rattus norvegicus [3]): 0.95 | Activity (Rattus norvegicus [4]): > 63% | Activity (Rattus norvegicus [5]): > 73%

Cl.Nc1ccc(C23CC4CC(CC(C4)C2)C3)cc1
T/C (Rattus norvegicus [1]): 1.41 | T/C (Rattus norvegicus [2]): 1.4 | Selectivity ratio (Rattus norvegicus [3]): 0.99 | Activity (Rattus norvegicus [4]): > 63% | Activity (Rattus norvegicus [5]): > 73%

CSCc1cc(OC23CC4CC(CC(C4)C2)C3)cc(C)c1N
T/C (Rattus norvegicus [1]): 0.88 | T/C (Rattus norvegicus [2]): 0.85 | Selectivity ratio (Rattus norvegicus [3]): 0.96 | Activity (Rattus norvegicus [4]): > 63% | Activity (Rattus norvegicus [5]): > 73%

CN(C)c1ccc(OC23CC4CC(CC(C4)C2)C3)cc1.Cl
T/C (Rattus norvegicus [1]): 0.46 | T/C (Rattus norvegicus [2]): 0.34 | Selectivity ratio (Rattus norvegicus [3]): 0.73 | Activity (Rattus norvegicus [4]): > 63% | Activity (Rattus norvegicus [5]): > 73%

Nc1ccc(OC23CC4CC(CC(C4)C2)C3)cc1F
T/C (Rattus norvegicus [1]): 0.35 | T/C (Rattus norvegicus [2]): 0.24 | Selectivity ratio (Rattus norvegicus [3]): 0.68 | Activity (Rattus norvegicus [4]): > 63% | Activity (Rattus norvegicus [5]): > 73%

Nc1ccc(O)cc1 [4-AMINOPHENOL]
T/C (Rattus norvegicus [1]): 0.94 | T/C (Rattus norvegicus [2]): 0.98 | Selectivity ratio (Rattus norvegicus [3]): 1.04 | Activity (Rattus norvegicus [4]): > 63% | Activity (Rattus norvegicus [5]): > 73%

Nc1ccc(OC23CC4CC(CC(C4)C2)C3)cc1
T/C (Rattus norvegicus [1]): 0.54 | T/C (Rattus norvegicus [2]): 0.35 | Selectivity ratio (Rattus norvegicus [3]): 0.65 | Activity (Rattus norvegicus [4]): > 63% | Activity (Rattus norvegicus [5]): > 73%

Nc1ccc(OC2C3CC4CC(C3)CC2C4)cc1 (stereo not given)
T/C (Rattus norvegicus [1]): 0.82 | T/C (Rattus norvegicus [2]): 0.67 | Selectivity ratio (Rattus norvegicus [3]): 0.82 | Activity (Rattus norvegicus [4]): > 63% | Activity (Rattus norvegicus [5]): > 73%

Cl.Nc1ccc(OC23CC4CC(CC(C4)C2)C3)c(Cl)c1
T/C (Rattus norvegicus [1]): 0.63 | T/C (Rattus norvegicus [2]): 0.43 | Selectivity ratio (Rattus norvegicus [3]): 0.68 | Activity (Rattus norvegicus [4]): > 63% | Activity (Rattus norvegicus [5]): > 73%

CNc1ccc(OC23CC4CC(CC(C4)C2)C3)cc1.Cl
T/C (Rattus norvegicus [1]): 0.52 | T/C (Rattus norvegicus [2]): 0.32 | Selectivity ratio (Rattus norvegicus [3]): 0.63 | Activity (Rattus norvegicus [4]): > 63% | Activity (Rattus norvegicus [5]): > 73%

Clc1cc(N2CCCC2)ccc1OC12CC3CC(CC(C3)C1)C2
T/C (Rattus norvegicus [1]): 1.08 | T/C (Rattus norvegicus [2]): 1.07 | Selectivity ratio (Rattus norvegicus [3]): 0.98 | Activity (Rattus norvegicus [4]): > 63% | Activity (Rattus norvegicus [5]): > 73%

c1cc(N2CCCC2)ccc1OC12CC3CC(CC(C3)C1)C2
T/C (Rattus norvegicus [1]): 0.65 | T/C (Rattus norvegicus [2]): 0.52 | Selectivity ratio (Rattus norvegicus [3]): 0.8 | Activity (Rattus norvegicus [4]): > 63% | Activity (Rattus norvegicus [5]): > 73%

c1cc(N2CCCC2)ccc1CC12CC3CC(CC(C3)C1)C2
T/C (Rattus norvegicus [1]): 0.82 | T/C (Rattus norvegicus [2]): 0.87 | Selectivity ratio (Rattus norvegicus [3]): 1.06 | Activity (Rattus norvegicus [4]): > 63% | Activity (Rattus norvegicus [5]): > 73%
